Reference: the supplement of paper PMC11208160

Test: recombinant barcode read abundance after kanamycin selection (control-corrected) (log10(CPM+1)); higher = more efficient recombination; sequences stand for … in AGTGCAGAGAAAATCGGCCAGTTTTCTCTGCCTGCAGTCCGCATGCCGT…AGATTTATGCAGCGGACTGCCTTTCTCCCAAAGTGATAAACCGGACAGTATCATGGACCGGTTTTCCCGGTAATCCGTATTTGCAAGGTTGGTTTCACT; site = the 11-nt target
Method in brief: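 The screen was pooled in E. coli and paired targets with IS621 bridge RNA target-binding loops. Recombination efficiency is taken from barcode counts per million at recombinant junctions, averaged and adjusted against the control. Values, in the form log10(CPM+1), come from duplicate plating on chloramphenicol/ampicillin LB agar or on chloramphenicol/ampicillin/kanamycin with 0.1 mM IPTG.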
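Further: IS621 recombinase and bridge RNA in Escherichia coli cells.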

Row | Sequence | recombinant barcode read abundance (log10)
1 | TTCCGCTCTTGGGTTCTAACCTGTTGCCT (site ATCCGCTCTAG) | 0.112
2 | TTCCGCTCTTGGGTTCTAACCTGTTGCCT (site CTCCGCTCTAG) | 0.121
3 | TTCCGCTCTTGGGTTCTAACCTGTTGCCT (site GTCCGCTCTAG) | 0.139
4 | TTCCGCTCTTGGGTTCTAACCTGTTGCCT (site TTCCGCTCTAG) | 1.26
5 | TTCCTAGCTTGGGTTCTAACCTGTTGCCA (site ATCCTAGCTCG) | 0.493
6 | TTCCTAGCTTGGGTTCTAACCTGTTGCCA (site TTCCTAGCTTG) | 0.109
7 | TTCCTGACTTGGGTTCTAACCTGTTGCCT (site CTCCTGCCTAG) | 0.0475
8 | TTCCTGACTTGGGTTCTAACCTGTTGCCT (site TTCCTGACTAG) | 1.69
9 | TTCGACGCTTGGGTTCTAACCTGTTGCCT (site TTAGACTCTAG) | 0.152
10 | TTCGACGCTTGGGTTCTAACCTGTTGCCT (site TTCGACGCTAG) | 1.03
11 | TTCGACTCTTGGGTTCTAACCTGTTGCTA (site TACGACTCTAA) | 0.137
12 | TTCGACTCTTGGGTTCTAACCTGTTGCTA (site TTCGACTCTTA) | 1.07
13 | TTCGGACCTTGGGTTCTAACCTGTTGCGG (site GGGACCACTTA) | 0.677
14 | TTCGGACCTTGGGTTCTAACCTGTTGCGG (site TTCGGACCTCC) | 2.62
15 | TTCTACCCTTGGGTTCTAACCTGTTGCCT (site TACTACCCTAG) | 0.0731
16 | TTCTACCCTTGGGTTCTAACCTGTTGCCT (site TCCTACCCTAG) | 0.149
17 | TTCTACCCTTGGGTTCTAACCTGTTGCCT (site TGCTACCCTAG) | 0.0636
18 | TTCTACCCTTGGGTTCTAACCTGTTGCCT (site TTCTACCCTAG) | 0.449
19 | TTCTAGACTTGGGTTCTAACCTGTTGCCA (site GTCTATACTTG) | 0.16
20 | TTCTAGACTTGGGTTCTAACCTGTTGCCA (site TTCTAGACTTG) | 0.353
21 | TTCTCGCCTTGGGTTCTAACCTGTTGCCT (site TTCACGCCTAG) | 0.0182
22 | TTCTCGCCTTGGGTTCTAACCTGTTGCCT (site TTCCCGCCTAG) | 0.536
23 | TTCTCGCCTTGGGTTCTAACCTGTTGCCT (site TTCGCGCCTAG) | 0.00706
24 | TTCTCGCCTTGGGTTCTAACCTGTTGCCT (site TTCTCGCCTAG) | 0.576
25 | TTCTGTCCTTGGGTTCTAACCTGTTGCCT (site TTCTATCCTAG) | 0.0361
26 | TTCTGTCCTTGGGTTCTAACCTGTTGCCT (site TTCTCTCCTAG) | 0.0821
27 | TTCTGTCCTTGGGTTCTAACCTGTTGCCT (site TTCTGTCCTAG) | 0.799

Row | Sequence | recombinant barcode read abundance (log10)
28 | TTCTGTCCTTGGGTTCTAACCTGTTGCCT (site TTCTTTCCTAG) | 0.0428
29 | TTCTGTTCTTGGGTTCTAACCTGTTGCCT (site TTCTCTTCTAG) | 0.0281
30 | TTCTGTTCTTGGGTTCTAACCTGTTGCCT (site TTCTGTTCTAG) | 0.196
31 | TTCTTAACTTGGGTTCTAACCTGTTGCGG (site ACTGATCCTAT) | 0.0323
32 | TTCTTAACTTGGGTTCTAACCTGTTGCGG (site TTCTTAACTCC) | 0.532
33 | TTGAACCCTTGGGTTCTAACCTGTTGCGT (site ATGAACCCTAC) | 0.303
34 | TTGAACCCTTGGGTTCTAACCTGTTGCGT (site TTGAACCCTAC) | 1.63
35 | TTGAAGCCTTGGGTTCTAACCTGTTGCCT (site ATGAAGCCTAG) | 0.41
36 | TTGAAGCCTTGGGTTCTAACCTGTTGCCT (site CTGAAGCCTAG) | 0.0479
37 | TTGAAGCCTTGGGTTCTAACCTGTTGCCT (site GTGAAGCCTAG) | 0.0341
38 | TTGAAGCCTTGGGTTCTAACCTGTTGCCT (site TTGAAGCCTAG) | 1.38
39 | TTGAATTCTTGGGTTCTAACCTGTTGCTT (site TTGAATTCTAA) | 0.0275
40 | TTGAATTCTTGGGTTCTAACCTGTTGCTT (site TTGTATTCTAG) | 0.234
41 | TTGACACCTTGGGTTCTAACCTGTTGCCT (site GGAGTCACTCC) | 0.0713
42 | TTGACACCTTGGGTTCTAACCTGTTGCCT (site TTGACACCTAG) | 1.1
43 | TTGACTGCTTGGGTTCTAACCTGTTGCCT (site TTGAATGCTAG) | 0.0744
44 | TTGACTGCTTGGGTTCTAACCTGTTGCCT (site TTGACTGCTAG) | 0.812
45 | TTGACTGCTTGGGTTCTAACCTGTTGCCT (site TTGAGTGCTAG) | 0.0596
46 | TTGACTGCTTGGGTTCTAACCTGTTGCCT (site TTGATTGCTAG) | 0.0272
47 | TTGATATCTTGGGTTCTAACCTGTTGCCT (site TTGAAATCTAG) | 0.0834
48 | TTGATATCTTGGGTTCTAACCTGTTGCCT (site TTGACATCTAG) | 0.264
49 | TTGATATCTTGGGTTCTAACCTGTTGCCT (site TTGAGATCTAG) | 0.0244
50 | TTGATATCTTGGGTTCTAACCTGTTGCCT (site TTGATATCTAG) | 0.149
51 | TTGATGACTTGGGTTCTAACCTGTTGCCT (site TTGATGACTAG) | 1.25
52 | TTGATGACTTGGGTTCTAACCTGTTGCCT (site TTGTAGACTAG) | 0.103
53 | TTGCATTCTTGGGTTCTAACCTGTTGCTG (site AAAGGGGCTAG) | 0.147
54 | TTGCATTCTTGGGTTCTAACCTGTTGCTG (site TTGCATTCTCA) | 0.962

Row | Sequence | recombinant barcode read abundance (log10)
55 | TTGCGGCCTTGGGTTCTAACCTGTTGCAG (site CAAACTACTTG) | 0.0363
56 | TTGCGGCCTTGGGTTCTAACCTGTTGCAG (site TTGCGGCCTCT) | 1.78
57 | TTGGACACTTGGGTTCTAACCTGTTGCCT (site TTGGACACTAG) | 2.33
58 | TTGGACACTTGGGTTCTAACCTGTTGCCT (site TTGGCCACTAG) | 0.0571
59 | TTGGACACTTGGGTTCTAACCTGTTGCCT (site TTGGGCACTAG) | 0.327
60 | TTGGACACTTGGGTTCTAACCTGTTGCCT (site TTGGTCACTAG) | 0.227
61 | TTGGACGCTTGGGTTCTAACCTGTTGCCT (site TTGGACGCTAG) | 2.37
62 | TTGGACGCTTGGGTTCTAACCTGTTGCCT (site TTGGCCGCTAG) | 0.335
63 | TTGGACGCTTGGGTTCTAACCTGTTGCCT (site TTGGGCGCTAG) | 0.838
64 | TTGGACGCTTGGGTTCTAACCTGTTGCCT (site TTGGTCGCTAG) | 0.133
65 | TTGGGTGCTTGGGTTCTAACCTGTTGCCG (site TTGGGTGCTCG) | 1.81
66 | TTGGGTGCTTGGGTTCTAACCTGTTGCCG (site TTGGGTTCTAG) | 0.0649
67 | TTGGTTCCTTGGGTTCTAACCTGTTGCCT (site TTGGTACCTAG) | 0.155
68 | TTGGTTCCTTGGGTTCTAACCTGTTGCCT (site TTGGTCCCTAG) | 0.0439
69 | TTGGTTCCTTGGGTTCTAACCTGTTGCCT (site TTGGTGCCTAG) | 0.43
70 | TTGGTTCCTTGGGTTCTAACCTGTTGCCT (site TTGGTTCCTAG) | 2.07
71 | TTGTAAGCTTGGGTTCTAACCTGTTGCCG (site TTGTAAGCTCG) | 0.653
72 | TTGTAAGCTTGGGTTCTAACCTGTTGCCG (site TTGTGAGCTCC) | 0.441
73 | TTGTACACTTGGGTTCTAACCTGTTGCCC (site CACATGCCTCA) | 0.452
74 | TTGTACACTTGGGTTCTAACCTGTTGCCC (site TTGTACACTGG) | 0.996
75 | TTGTCTCCTTGGGTTCTAACCTGTTGCCT (site ATGTCTCCTAG) | 0.0689
76 | TTGTCTCCTTGGGTTCTAACCTGTTGCCT (site CTGTCTCCTAG) | 0.0237
77 | TTGTCTCCTTGGGTTCTAACCTGTTGCCT (site GTGTCTCCTAG) | 0.109
78 | TTGTCTCCTTGGGTTCTAACCTGTTGCCT (site TTGTCTCCTAG) | 0.304
79 | TTGTGTTCTTGGGTTCTAACCTGTTGCTT (site TTGTACTCTAA) | 0.00637
80 | TTGTGTTCTTGGGTTCTAACCTGTTGCTT (site TTGTGTTCTAA) | 0.159
